Results published in patent US20230391868A1, “COMPOSITIONS FOR AND METHODS OF TREATING CANCER” (The George Washington University, priority 2022, published 2023).

B1: IFNγ: interferon gamma, cytokine used to stimulate Cd47 upregulation (protein, UniProt P01580 23-155, looked up)
Interferon gamma: HGTVIESLESLNNYFNSSGIDVEEKSLFLDIWRNWQKDGDMKILQSQIISFYLRLFEVLKDNQAISNNISVIESHLITTFFSNSKAKKDAFMSIAKFEVNNPQVQRQAFNELIRVVHQLLPESSLRKRKRSRC

Columns and labels:
[1] = Laengle J, et al. (2020); cited from earlier work
[2] = target: mouse CD47 on the surface of SM1 melanoma cells (mouse) (UniProt Q61735); test: flow cytometry titration on SM1 cells; free CD47 read with PE anti-mouse CD47 (miap301), bound antibody read with PE anti-rat IgG2a
Chain of UniProt Q61735 (Q61735 19-303): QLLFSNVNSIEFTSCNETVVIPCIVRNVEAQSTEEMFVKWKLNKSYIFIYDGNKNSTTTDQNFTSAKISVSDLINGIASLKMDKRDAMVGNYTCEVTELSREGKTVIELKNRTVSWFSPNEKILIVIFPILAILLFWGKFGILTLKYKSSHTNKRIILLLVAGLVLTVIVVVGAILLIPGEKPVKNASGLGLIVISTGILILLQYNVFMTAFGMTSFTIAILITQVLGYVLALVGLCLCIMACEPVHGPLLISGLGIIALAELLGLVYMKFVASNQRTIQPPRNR

[3] = test system: A31A7 macrophages and BMDMs; test: Macrophage M1/M2 marker gene expression by qRT-PCR; assay type: cell-based, mouse; conditions: A31A7; qRT-PCR (FIG. 7D-FIG. 7E)
Description: Bone marrow-derived macrophages were isolated from the femurs and tibias of wild-type C57/Bl6, HDAC6 knockout (C57BL/6J-Hdac6em2Lutzy/J, 029318, Jackson Laboratory), or UBC-GFP (C57BL/6-Tg(UBC-GFP)30Scha/J, 004353, Jackson Laboratory). Isolated bone marrow cells were cultured in RPMI 1640 complete medium with 10% FBS, 1% NEAA, and 1% penicillin-streptomycin in 5% CO2 at 37° C. Medium was supplemented with murine recombinant M-CSF (20 ng/mL, 576404, Biolegend) to differentiate monocytes into macrophages. Three days after bone marrow isolation, undifferentiated and floating cells were washed with PBS and replaced with fresh RPMI media. […]
(§1) Macrophages were polarized to M1-like phenotype using 50 ng/mL of interferon gamma (IFNγ, 575306, Biolegend) and 100 ng/mL of bacterial lipopolysaccharide (LPS, L2880, Sigma Aldrich, St. Louis, MO) for 24 hours. To polarize macrophages towards the M2-like phenotype, macrophages were stimulated with 20 ng/mL of IL-4 (214-14, PeproTech) and 20 ng/mL of IL-13 (575904, Biolegend). THP1 monocytes were treated with 5 ng/mL of phorbol 12-myristate 13-acetate (PMA) to induce differentiation into macrophages. Once converted to macrophages, media was replaced to remove PMA prior to treatment and/or polarization. Polarization towards M1 and M2 phenotypes was performed with respective recombinant human cytokines from PeproTech: 50 ng/mL of IFNγ (300-02), 20 ng/mL IL-4 (200-04), and 20 ng/mL IL-13 (200-13). 100 ng/mL LPS was also used to polarize toward the M1 phenotype. 3. In vivo Studies.
(§2) qRT-PCR: Total RNA was extracted from cells using the Trizol reagent according to manufacturer's instructions (ThermoFisher Scientific, 15596018). Samples were then processed immediately or stored at −80° C. RNA was quantified using a NanoDrop One Spectrophotometer (ThermoFisher Scientific). The 260/280 ratios were routinely over 1.8. Sample cDNA was produced using the iScript cDNA synthesis kit (Bio-Rad, 1708891). Target mRNA was quantified using MyIQ single-color real-time PCR detection system from Bio-Rad (Bio-Rad, Hercules, CA) and iQ SYBR green Supermix (Bio-Rad, 1708882). The following primers were synthesized by Invitrogen (Waltham, MA) with sequences designed by Origene (Rockville, MD): mouse R-actin (MP200232), mouse Nos2 (MP208933), mouse MRC1 (MP207800), human R-actin (HP204660), human IL-1β (HP200544), human MRC1 (HP206121), human NOS2 (HP200591), human CD209 (HP214086), mouse SIRPα (MP215450), mouse LRP1 (MP207604), human LRP1 (HP206040), mouse MFGE8 (MP208190), human MFGE8 (HP225757), mouse CD36 (MP201923), human CD36 (HP200058), and mouse CD47 (MP201932). Primers for mouse ARG-1 (PPM31770C) and human SIRPα (QT01031051) were purchased from Qiagen (Hilden, Germany). Human CD47 primer sequences were obtained from Sudo T, et al and are 5′-[…]-3′ (sense) (SEQ ID NO:01) and 5′-[…]-3′ (antisense) (SEQ ID NO:02) (Sudo T, et al. (2017) Oncol. Lett. 14:801-809). Human CD86 primer sequences are 5′-[…]-3′ (sense) (SEQ ID NO:03) and 5′-[…]-3′ (antisense) (SEQ ID NO:04). Mouse CD80 sequences are 5′-[…]-3′ (sense) (SEQ ID NO:05) and 5′-[…]-3′ (antisense) (SEQ ID NO:06). Cycling conditions were set as per manufacturer's instructions. Single product amplification was confirmed by melting curve analysis. Quantification is expressed in arbitrary units and target mRNA levels were normalized to R-actin expression.

[4] = test system: THP1-derived macrophages; test: M1/M2 marker gene expression in THP1-derived macrophages by qRT-PCR; assay type: cell-based, human; conditions: gene expression (FIG. 7H)
Description: as §1
as §2, with “expression. […]” for “expression.”

[5] = test system: human THP1-derived macrophages; test: Pro-phagocytic signal gene expression in THP1-derived macrophages; assay type: cell-based; conditions: human THP1-derived macrophages (FIG. 8E); corroboration of NextA increase
Description: as §1
(§3) qRT-PCR: Total RNA was extracted from cells using the Trizol reagent according to manufacturer's instructions (ThermoFisher Scientific, 15596018). Samples were then processed immediately or stored at −80° C. RNA was quantified using a NanoDrop One Spectrophotometer (ThermoFisher Scientific). The 260/280 ratios were routinely over 1.8. Sample cDNA was produced using the iScript cDNA synthesis kit (Bio-Rad, 1708891). Target mRNA was quantified using MyIQ single-color real-time PCR detection system from Bio-Rad (Bio-Rad, Hercules, CA) and iQ SYBR green Supermix (Bio-Rad, 1708882). The following primers were synthesized by Invitrogen (Waltham, MA) with sequences designed by Origene (Rockville, MD): mouse R-actin (MP200232), mouse Nos2 (MP208933), mouse MRC1 (MP207800), human R-actin (HP204660), human IL-1β (HP200544), human MRC1 (HP206121), human NOS2 (HP200591), human CD209 (HP214086), mouse SIRPα (MP215450), mouse LRP1 (MP207604), human LRP1 (HP206040), mouse MFGE8 (MP208190), human MFGE8 (HP225757), mouse CD36 (MP201923), human CD36 (HP200058), and mouse CD47 (MP201932). […] Quantification is expressed in arbitrary units and target mRNA levels were normalized to R-actin expression.

[6] = test system: SM1 melanoma cells; test: Cd47 mRNA upon IFNγ stimulation in SM1 cells; assay type: cell-based, mouse
Description: as §3, with “(MP201932). Primers for mouse ARG-1 (PPM31770C) and human SIRPα (QT01031051) were purchased from Qiagen (Hilden, Germany).” for “(MP201932).”
(§4) Although the mechanism by which IFNγ drives CD47 upregulation is unclear, IFNγ expression correlates to CD47 expression in skin cutaneous melanoma (Ye Z H, et al. (2021) Transl. Oncol. 14:101162). The kinetics of Cd47 mRNA in SM1 and B16 cells upon IFNγ stimulation (100 ng/mL) were evaluated and these mouse melanoma models were determined to have different kinetics (FIG. 9A-FIG. 9B). It was determined that 12 hours was a time point for both models to sustain the IFNγ-mediated upregulation. In FIG. 9B, the role of HDAC6 inhibitors NextA and Tubastatin A in abrogating Cd47 upregulation upon stimulation with IFNγ for 12 hours was evaluated.

[7] = test system: B16 melanoma cells; test: Cd47 mRNA upon IFNγ stimulation in B16 cells; assay type: cell-based, mouse
Description: as §3, with “(MP201932). Primers for mouse ARG-1 (PPM31770C) and human SIRPα (QT01031051) were purchased from Qiagen (Hilden, Germany).” for “(MP201932).”
as §4

[8] = IFNγ stimulation (100 ng/mL) for 12 hours

Row | Molecule | Arg1 in M2 polarized macrophages [3] | Cd80 expression in M1-like macrophages [3] | effects on THP1-derived macrophage M2-like polarization [4] | expression of pro-phagocytic signals [5] | further results
1 | O=C(CCCCCCC(=O)Nc1ccccc1)NO [SAHA, suberoylanilide hydroxamic acid] | – | – | – | – | trastuzumab-mediated phagocytosis [1]: enhance trastuzumab-mediated phagocytosis
2 | anti-mouse CD47 (clone miap301, 127502, Biolegend) (antibody) | – | – | – | – | lowest antibody concentration that provided maximum surface CD47 blockade and epitope saturation [2]: 25 µg/mL
3 | CN1CCc2c(c3ccccc3n2Cc2ccc(C(=O)NO)cc2)C1 [Tubastatin A] | downregulated | upregulated | verified | corroborated | IFNγ-driven Cd47 upregulation at the transcriptional level ([6]; IFNγ for 12 hours): repressed these effects; IFNγ-driven Cd47 upregulation at the transcriptional level ([7]; IFNγ for 12 hours): repressed these effects
4 | O=C(CCCCCCC(=O)Nc1ccc([C@H]2O[C@@H](CSc3nc(-c4ccccc4)c(-c4ccccc4)o3)C[C@@H](c3ccc(CO)cc3)O2)cc1)NO [Tubacin] | downregulated | upregulated | verified | corroborated | –
5 | B1 | – | – | – | – | Cd47 upregulation [6, 8]: 1.6 fold; Cd47 upregulation [7, 8]: 10 fold
